Data as given in patent US8586555B2, “Immunomodulatory compositions, formulations, and methods for use thereof” (Dynavax Technologies Corporation, priority 2001, dated 2013).

Tests used:
Assay type in all cases: cell-based
[1] = tested on: human peripheral blood mononuclear cells (hPBMC); test: human PBMC assay, Example 3 (oligo and PLGA added at the same time, 48 well plates); details: for IFN-α / IFN-γ: oligo 20 μg/ml, PLGA 250 μg/ml, 24 hours; for immunomodulatory activity: in combination with cationic PLGA; for IFN-α Mean / IFN-γ Mean: mean of donors 28033, 28034
Experimental: (§1) Hexameric oligonucleotides were tested for immunomodulatory activity alone and complexed with lactic acid/glycolic acid copolymer microcarrier beads using a human peripheral blood mononuclear cells (hPBMC) assay. Peripheral blood was collected from healthy volunteers by venipuncture using heparinized syringes. Blood was layered onto a FICOLL® (Amersham Pharmacia Biotech) cushion and centrifuged. hPBMCs, located at the FICOLL® interface, were collected, then washed twice with cold phosphate buffered saline (PBS). The cells were resuspended and cultured in 48 well plates at 2×10^6 cells/mL at 37° C. in RPMI 1640 with 10% heat-inactivated human AB serum plus 50 units/mL penicillin, 50 μg/mL streptomycin, 300 μg/mL glutamine, 1 mM sodium pyruvate, and 1×MEM non-essential amino acids (NEAA).
(§2) Oligonucleotides were tested as single agents, or in combination with PLGA microspheres (unmodified or cationic). All oligonucleotides contained 100% phosphorothioate linkages and were tested at 20 μg/ml. The PLGA microcarriers were used at 250 μg/ml. When oligos were tested with PLGA microcarriers, the oligo and the microcarriers were added at the same time to the culture. The cells were cultured in the in the presence of test samples for 24 hours, then cell-free medium was collected from each well and assayed for IFN-γ and IFN-α concentration. Two different oligonucleotides were used as controls: a first oligonucleotide known to have immunostimulatory activity (a 22mer oligonucleotide containing an ISS (“ISS+,” 5′-[…]-3′(SEQ ID NO:2)) and a second oligonucleotide of similar sequence but lacking immunostimulatory activity (“ISS−,” 5′-[…]-3′ (SEQ ID NO:1)). SAC (PANSORBIN® CalBiochem, 1/5000 dilution) and a untreated culture were used as additional positive and negative controls, respectively. SAC contains Staph. aureus (Cowan I) cell material. All samples were assayed in duplicate.
(§3) IFN-γ and IFN-α were assayed using CYTOSCREEN™ ELISA kits from BioSource International, Inc., according to the manufacturer's instructions.

[2] = tested on: human peripheral blood mononuclear cells (hPBMC); test: human PBMC assay, Example 5 (96 well plates, premixed); details: for IFN-α Mean / IFN-γ Mean: mean of donors 28051-28054
Experimental: as §1, §2, §3
(§4) The immunomodulatory activity of the oligonucleotides used in Examples 3 and 4 was confirmed with the human PBMC assay using PBMCs from an additional four donors (donors 28051-28054). Oligonucleotides were tested alone or in combination with cationic PLGA as described in Example 3, except that 96 well plates were used instead of 48 well plates and the oligonucleotides were premixed with the cationic microspheres at room temperature for 15 minutes before they were added to the culture, rather than being added simultaneously to the culture.

[3] = tested on: human peripheral blood mononuclear cells (hPBMC); test: human PBMC assay, Example 6
Experimental: as §1, §2, §3, §4
Additional oligonucleotides were tested for immunomodulatory activity in the human PBMC assay. Oligonucleotides were tested alone or in combination with cPLGA as described in Example 5.
Additional oligonucleotides were tested using hPBMCs from volunteers 154-157 using the same assay. Results, which are shown in Table 7, confirm the activity of oligonucleotides fitting the formula 5′-X1TCGX2-3′, where the oligonucleotide is a 3-6mer, X1 is zero or one nucleotide and X2 is zero to three nucleotides.

[4] = delivered as IMO/MC complexes (cPLGA)

Substance	IFN-α ([1]; donor 28033)	IFN-γ ([1]; donor 28033)	IFN-α ([1]; donor 28034)	IFN-γ ([1]; donor 28034)	immunomodulatory activity [1]	IFN-α Mean [1]	IFN-γ Mean [1]	immunomodulatory activity ([2]; delivered alone)	immunomodulatory activity [2, 4]	IFN-α ([2]; donor 28051)	IFN-γ ([2]; donor 28051)	IFN-α ([2]; donor 28052)	IFN-γ ([2]; donor 28052)	IFN-α ([2]; donor 28053)	IFN-γ ([2]; donor 28053)	IFN-α ([2]; donor 28054)	IFN-γ ([2]; donor 28054)	IFN-α Mean [2]	IFN-γ Mean [2]	other results
5′-ATCGAT-3′ [Oligonucleotide 6-7]	8 pg/mL	0 pg/mL	22 pg/mL	3 pg/mL	active	15 pg/mL	2 pg/mL	inactive	highly active	1 pg/mL	1 pg/mL	0 pg/mL	1 pg/mL	4 pg/mL	2 pg/mL	1 pg/mL	2 pg/mL	2 pg/mL	1 pg/mL	
5′-TCGTCG-3′ [Oligonucleotide 6-1]	0 pg/mL	0 pg/mL	40 pg/mL	4 pg/mL	active	20 pg/mL	2 pg/mL	inactive	highly active	0 pg/mL	2 pg/mL	2 pg/mL	3 pg/mL	1 pg/mL	1 pg/mL	4 pg/mL	2 pg/mL	2 pg/mL	2 pg/mL	IFN-α Mean ([3]; mean of volunteers 154-157): 0 pg/mL; IFN-γ Mean ([3]; mean of volunteers 154-157): 3 pg/mL; IFN-α ([3]; volunteer 154): 0 pg/mL; IFN-γ ([3]; volunteer 154): 0 pg/mL; IFN-α ([3]; volunteer 155): 0 pg/mL; IFN-γ ([3]; volunteer 155): 0 pg/mL; IFN-α ([3]; volunteer 156): 0 pg/mL; IFN-γ ([3]; volunteer 156): 11 pg/mL; IFN-α ([3]; volunteer 157): 0 pg/mL; IFN-γ ([3]; volunteer 157): 0 pg/mL
